Data from patent US8093231B2, “Sulfonylethyl phosphorodiamidates” (Telik, Inc., priority 2004, dated 2012).
Where a name gives a salt, the structure may show the parent alone. Read-outs that look alike come from different tables or passages of the source.

Key:
[1] = tested on: MX-1, DLD-1 and LNCap cells; experiment: Cytotoxicity/growth inhibition assay, cell line not specified for the statement
Text: The human cancer cell lines DLD-1 (colorectal adenocarcinoma), LNCap (prostate carcinoma), and OVCAR-3 (ovarian carcinoma) were obtained from the American Type Culture Collection, Manassas, Va., U.S.A., and HL-60 (promyeloid myelocytic leukemia), MX-1 (breast carcinoma), P388, and P388ADR from the National Cancer Institute, Bethesda, Md., U.S.A. Carboplatin, doxorubicin, and melphalan were obtained from Sigma-Aldrich Chemical Company, St. Louis, Mo., U.S.A. The CellTiter-Glo assay kit was obtained from Promega Corporation, Madison, Wis., U.S.A., and the Cellular DNA Cytometric Analysis Reagent Kit from Roche Diagnostics Corporation, Indianapolis, Ind., U.S.A. Lambda DNA was obtained from New England Biolabs, Beverly, Mass., U.S.A., and SYBR-Gold from Molecular Probes, Inc., Eugene, Oreg., U.S.A. The DNeasy Tissue Kit was obtained from Qiagen Inc., Valencia, Calif., U.S.A., and AmpliTaq Gold DNA polymerase and PCR reagents from Applied Biosystems, Foster City, Calif., U.S.A. All products were used in accordance with manufacturer's directions. […] The extent of cell growth was expressed as a percentage of the signal from the solvent control wells.
Log-phase cells were trypsinized, collected by centrifugation, and resuspended in a small volume of fresh medium, and the density of viable cells was determined following Trypan Blue staining. […]

[2] = tested on: MiaPaCa-2 (human pancreatic cancer) tumor; experiment: MiaPaCa-2 xenograft assay, intraperitoneal administration; format: in vivo, athymic nu/nu mice; conditions: 100 mg/Kg intraperitoneal once/day for 14 days
Procedure: Male athymic nu/nu mice, 6-8 weeks old (approximately 20 g), were implanted subcutaneously in the right fore flank with 20-30 mg pieces of MiaPaCa-2 (human pancreatic cancer) tumor harvested from similar mice that had previously been implanted with the MiaPaCa-2 tumor. Approximately 7-10 days after tumor transplantation, when the tumor weight was approximately 50-200 mg, the mice were assigned to treatment groups. Groups of mice were treated with compound 13A or 70A at 100 mg/Kg by intraperitoneal injection once/day for 14 days, with vehicle control. Tumor growth inhibition was measured 15 days after the start of treatment.

[3] = tested on: DLD-1 (colorectal adenocarcinoma); experiment: Cytotoxicity/growth inhibition assay, DLD-1; format: cell-based, human; conditions: Homo sapiens, DLD-1, 96 h, read-out: IC50 (DLD-1)
In short: (§1)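 Test compounds in DMSO (0.1–200 μM; final DMSO 0.5%) added to freshly diluted cells (3×10^3 cells/mL MX-1 and DLD-1, 6×10^3 cells/mL LNCap), triplicate wells. Cultured ~three doubling times (3 days MX-1, 4 days DLD-1/LNCap). CellTiter-Glo luminescence, 15 min room temperature; growth expressed as % of DMSO solvent control.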

[4] = tested on: MX-1 (human breast cancer) tumor; experiment: MX-1 xenograft assay, intraperitoneal administration; format: in vivo, athymic nu/nu mice; conditions: for activity in MX-1 xenograft assay: 100 mg/Kg intraperitoneal once/day for 5, 9, or 14 days; for tumor inhibition / dose dependence of tumor inhibition: intraperitoneal; for dose dependence of tumor inhibition: range of doses and treatment times
Procedure: (§2) Female athymic nu/nu mice (Harlan, Indianapolis, Ind., U.S.A. or similar vendor), 6-8 weeks old (approximately 20 g), were implanted in the mammary fat pad of the right fore flank with 20-30 mg pieces of MX-1 (human breast cancer) tumor harvested from similar mice that had previously been implanted with the MX-1 tumor. Approximately 7-10 days after tumor transplantation, when the tumor weight was approximately 50-200 mg, the mice were assigned to treatment groups. […] All compounds were active in this assay, with tumor growth inhibition compared to vehicle between 5% (compound 171A) and 99% (compound 13A), with most compounds causing at least 30% tumor growth inhibition. […] Compound 13A was tested at 25, 50, or 100 mg/Kg for 5 or 9 days, causing tumor inhibition between 19% (25 mg/Kg for 5 days) and 99% (100 mg/Kg for 9 days). Compound 70A was tested at 50, 100, and 150 mg/Kg for 5 or 12 days, causing tumor inhibition between 16% (50 mg/Kg for 5 days) and 95% (150 mg/Kg for 12 days).

[5] = tested on: MiaPaCa-2 (human pancreatic cancer) tumor; experiment: MiaPaCa-2 xenograft assay, oral administration; format: in vivo, athymic nu/nu mice; conditions: 200 mg/Kg for 7 days
[6] = tested on: HCT116 (human colon cancer) tumor; experiment: HCT116 xenograft assay, intraperitoneal administration; format: in vivo, athymic nu/nu mice
Procedure: Male athymic nu/nu mice, 6-8 weeks old (approximately 20 g), were implanted subcutaneously in the right fore flank with 20-30 mg pieces of HCT116 (human colon cancer) tumor harvested from similar mice that had previously been implanted with the HCT116 tumor. Approximately 7-10 days after tumor transplantation, when the tumor weight was approximately 50-200 mg, the mice were assigned to treatment groups. Groups of mice were treated with compounds 5A or 13A at 100 mg/Kg, or compound 70A at 150 mg/Kg, by intraperitoneal injection once/day for 11 days, with vehicle control. Tumor growth inhibition was measured 13 days after the start of treatment.

Lambda DNA = experiment: DNA damage assay; format: biochemical; conditions: 100 μM and 300 μM, room temperature, one day, PCR amplification
DLD-1 cells = experiment: Cell cycle analysis; format: cell-based, human; conditions: approximately IC75-85, one and two days, propidium iodide FACS
MX-1 (breast carcinoma) = experiment: Cytotoxicity/growth inhibition assay, MX-1; format: cell-based, human; conditions: Homo sapiens, MX1, 72 h, read-out: IC50 (MX-1)
In short: as §1

[7] = tested on: MX-1 (human breast cancer) tumor; experiment: MX-1 xenograft assay, oral administration; format: in vivo, athymic nu/nu mice
Procedure: as §2
A study similar to that described in In vivo Example 1 was performed using oral administration of compounds 13A and 70A. Groups of mice were treated with compound 13A at 50, 100, or 300 mg/Kg, or compound 70A at 100, 150, 200, or 250 mg/Kg, by gavage once/day for 5 days (with vehicle control). Tumor growth inhibition was measured 13 days after the start of treatment.

[8] = tested on: P388 murine leukemia cell line; experiment: Cross-resistance assay; format: cell-based; conditions: P388 vs doxorubicin-resistant derivative; cross-resistant if resistance ratio approximately 2 or higher
Text: (§3) The human cancer cell lines DLD-1 (colorectal adenocarcinoma), LNCap (prostate carcinoma), and OVCAR-3 (ovarian carcinoma) were obtained from the American Type Culture Collection, Manassas, Va., U.S.A., and HL-60 (promyeloid myelocytic leukemia), MX-1 (breast carcinoma), P388, and P388ADR from the National Cancer Institute, Bethesda, Md., U.S.A. Carboplatin, doxorubicin, and melphalan were obtained from Sigma-Aldrich Chemical Company, St. Louis, Mo., U.S.A. The CellTiter-Glo assay kit was obtained from Promega Corporation, Madison, Wis., U.S.A., and the Cellular DNA Cytometric Analysis Reagent Kit from Roche Diagnostics Corporation, Indianapolis, Ind., U.S.A. Lambda DNA was obtained from New England Biolabs, Beverly, Mass., U.S.A., and SYBR-Gold from Molecular Probes, Inc., Eugene, Oreg., U.S.A. The DNeasy Tissue Kit was obtained from Qiagen Inc., Valencia, Calif., U.S.A., and AmpliTaq Gold DNA polymerase and PCR reagents from Applied Biosystems, Foster City, Calif., U.S.A. All products were used in accordance with manufacturer's directions. All assays were conducted in triplicate wells, with dimethyl sulfoxide (DMSO) solvent control. The extent of cell growth was expressed as a percentage of the signal from the solvent control wells.

OVCAR-3 cell line = experiment: Synergism assay; format: cell-based, human
Text: as §3

[9] = tested on: ovarian, breast, non-small cell lung, and colorectal cancers; conditions: cited from earlier work
[10] = tested on: M7609 engineered to have high, medium, and low levels of GST P1-1; conditions: murine xenografts; cited from earlier work
[11] = tested on: MCF-7 human breast carcinoma cell line selected for resistance to cyclophosphamide; conditions: overexpresses GST P1-1; cited from earlier work
[12] = tested on: M6709 human colon carcinoma cell line selected for resistance to doxorubicin; conditions: overexpresses GST P1-1; cited from earlier work
[13] = tested on: in vitro cell culture and tumor biopsies; conditions: cited from earlier work

O=P(OCCSCCOP(=O)(N(CCCl)CCCl)N(CCCl)CCCl)(N(CCCl)CCCl)N(CCCl)CCCl [Compound 1CC, di[2-[[bis[bis(2-chloroethyl)amino]phosphinyl]oxy]ethyl]sulfide]
activity in cytotoxicity/growth inhibition assay [1]: active

N[C@@H](CS(=O)(=O)CCOP(=O)(N(CCCl)CCCl)N(CCCl)CCCl)C(=O)O [Compound 70A, 3-[[2-[[bis[bis(2-chloroethyl)amino]phosphinyl]oxy]ethyl]sulfonyl]-L-alanine]
activity in MiaPaCa-2 xenograft assay [2]: active
inhibition of tumor growth compared to vehicle ([2]; measured 15 days after start): 38%
IC50 [3]: 10.7 µM
activity in MX-1 xenograft assay [4]: active
tumor inhibition ([4]; 50 mg/Kg for 5 days): 16%
tumor inhibition ([4]; 150 mg/Kg for 12 days): 95%
dose dependence of tumor inhibition [4]: dose-dependent tumor inhibition
activity in MiaPaCa-2 xenograft assay, oral [5]: active
inhibition of tumor growth [5]: 27%
inhibition of tumor growth compared to vehicle ([6]; 150 mg/Kg intraperitoneal once/day for 11 days, measured 13 days after start): 26%
activity in HCT116 xenograft assay ([6]; intraperitoneal once/day for 11 days): active
DNA damage activity (Lambda DNA): only marginal DNA damage activity
cell cycle effect (G2/M cycle block) (DLD-1 cells): induced a G2/M cycle block
IC50 (MX-1 (breast carcinoma)): 36.7 µM
inhibition of tumor growth compared to vehicle ([7]; 100 mg/Kg gavage once/day for 5 days, measured 13 days after start): 36%
inhibition of tumor growth compared to vehicle ([7]; 250 mg/Kg gavage once/day for 5 days, measured 13 days after start): 96%
activity in MX-1 xenograft assay, oral ([7]; gavage once/day for 5 days): active
dose dependence of tumor inhibition, oral ([7]; gavage once/day for 5 days, measured 13 days after start): dose-dependent tumor inhibition
cross-resistance with doxorubicin [8]: not cross-resistant

O=P(OCCS(=O)(=O)Cc1ccccc1)(N(CCCl)CCCl)N(CCCl)CCCl [Compound 128A, α-[[2-[[bis[bis(2-chloroethyl)amino]phosphinyl]oxy]ethyl]sulfonyl]toluene]
IC50 [3]: 3.2 µM
activity in MX-1 xenograft assay [4]: active
dose dependence of tumor inhibition [4]: dose-dependent tumor inhibition
synergism with carboplatin (OVCAR-3 cell line): synergistic
cell cycle effect (G2/M cycle block) (DLD-1 cells): induced a G2/M cycle block
IC50 (MX-1 (breast carcinoma)): 4.5 µM
cross-resistance with doxorubicin [8]: not cross-resistant

N[C@@H](CCC(=O)N[C@@H](CS(=O)(=O)CCOP(=O)(N(CCCl)CCCl)N(CCCl)CCCl)C(=O)N[C@@H](C(=O)O)c1ccccc1)C(=O)O [canfosfamide hydrochloride]
clinical activity ([9]; colorectal and breast cancer): single agent antitumor activity
incidence of clinically significant hematological toxicity ([9]; patients treated): very low incidence
clinical activity ([9]; patients with non-small cell lung cancer and ovarian cancer): significant single agent antitumor activity and improvement in survival
potency versus level of GST P1-1 [10]: positively correlated with the level of GST P1-1

N[C@@H](CCC(=O)N[C@@H](CS(=O)(=O)CCOP(=O)(N(CCCl)CCCl)N(CCCl)CCCl)C(=O)N[C@@H](C(=O)O)c1ccccc1)C(=O)O [canfosfamide, L-γ-glutamyl-3-[[2-[[bis[bis(2-chloroethyl)amino]phosphinyl]oxy]ethyl]sulfonyl]-L-alanyl-2phenyl-(2R)-glycine]
potency in resistant line over parental cell line [11]: more potent
synergism with carboplatin (OVCAR-3 cell line): synergistic
DNA damage activity (Lambda DNA): only marginal DNA damage activity
cell cycle effect (G2/M cycle block) (DLD-1 cells): induced a G2/M cycle block
potency in resistant line over parental cell line [12]: more potent
cross-resistance to platinum, paclitaxel, doxorubicin and gemcitabine [13]: non-cross-resistant
